Consider four compounds from patent US9056840B2, “Coelenterazine analogues and coelenteramide analogues” (JNC Corporation, priority 2010, dated 2015).

Data set [1] deals with T1, apoaequorin (Aequorea victoria, UniProt P07164).
T1 construct: purchased Chisso Corporation
Description: Calcium standard curve with semi-synthetic aequorins. Particulars: FIG. 3; Imax versus calcium concentration. It is filed as biochemical. As for the experimental part: In 9 ml of 50 mM Tris-HCl (pH 7.6), 1 ml of 1 g/L calcium carbonate standard solution (manufactured by Wako Pure Chemicals) was diluted to prepare 10^−3 M calcium carbonate solution. One milliliter of the resulting 10^−3 M calcium carbonate solution was taken and added to 9 ml of 50 mM Tris-HCl (pH 7.6) to prepare 10^−4 M calcium carbonate solution. Next, 3 ml of the resulting 10^−4 M calcium carbonate solution was taken and added to 6 ml of 50 mM Tris-HCl (pH 7.6) to prepare […] calcium carbonate solution. One milliliter from the 10^−4 M calcium carbonate solution obtained was added to 9 ml of 50 mM Tris-HCl (pH 7.6) to prepare 10^−5 M calcium carbonate solution. Then, 3 ml of the resulting 10^−5 M calcium carbonate solution was taken and added to 6 ml of 50 mM Tris-HCl (pH 7.6) to prepare 3×10^−5 M calcium carbonate solution. A dilution series was prepared by successively repeating the procedures described above to give the 10^−3 M to 10^−8 M calcium standard solutions.
In 5 ml of 50 mM Tris-HCl (pH 7.6) containing 10 mM DTT and 30 mM EDTA, 5 mg of recombinant apoaequorin (manufactured by Chisso Corporation) was dissolved and 100 μg of coelenterazine analogue dissolved in ethanol in an amount of 1.2-fold equivalent was added to the solution. The mixture was allowed to stand at 4° C. overnight to convert into semi-synthetic aequorin. The resulting semi-synthetic aequorin was concentrated using Amicon Ultra-4 (manufactured by Millipore, Inc., molecular weight cut-off: 10,000) to remove an excessive of coelenterazine analogue. The mixture was then washed 3 times with 3 ml of 30 mM Tris-HCl (pH 7.6) containing 0.05 mM EDTA to give the solution of semi-synthetic aequorin containing 0.05 mM EDTA. This semi-synthetic aequorin solution (2.5 mg/ml) was diluted with 20 mM Tris-HCl (pH 7.6) containing 0.1% BSA (manufactured by Sigma), 0.01 mM EDTA and 150 mM NaCl.
The calcium standard solution prepared as above was dispensed into a 96-well microplate (Nunc #236108) at 50 μl/well and 10 μl of the diluted semi-synthetic aequorin solution was injected into 50 μl of various concentration of calcium standard solution. The luminescence intensity was measured for 60 seconds on a luminescence plate reader Centro LB960 (manufactured by Berthold) and expressed in terms of the maximum intensity (Imax) of luminescence. The luminescence intensity was measured on each semi-synthetic aequorin in the same procedures. Semi-synthetic aequorins for practically use were chosen by the maximum intensity (Imax) of luminescence and the calcium standard curve of semi-synthetic aequorin was prepared.

The target in data set [2] is T1, apoaequorin. The data set is described as follows: Luminescence patterns of semi-synthetic aequorins, half decay time. The format is biochemical. The following applies: for Half decay time: semi-synthetic aequorin, time in which luminescence becomes half of maximum, patterns measured for 60 seconds. As for the experimental part: A solution of the regenerated semi-synthetic aequorin was diluted to 10-fold with 20 mM Tris-HCl (pH 7.6) containing 0.1% BSA (manufactured by Sigma, Inc.), 0.01 mM EDTA and 150 mM NaCl. The dilution was dispensed into a 96-well microplate (Nunc #236108) at 5 μl/well. The luminescence reaction was triggered by injecting 50 mM Tris-HCl (pH 7.6) containing 50 mM calcium chloride solution at 100 μl/well. The luminescence patterns for 60 seconds were measured to determine half decay time of the luminescence (a time period in which the luminescence becomes half of the maximum luminescence intensity).

The next data set addresses T2, Renilla luciferase (Renilla reniformis, UniProt P27652).
T2 construct: made in house
T2 sequence (P27652 1-311): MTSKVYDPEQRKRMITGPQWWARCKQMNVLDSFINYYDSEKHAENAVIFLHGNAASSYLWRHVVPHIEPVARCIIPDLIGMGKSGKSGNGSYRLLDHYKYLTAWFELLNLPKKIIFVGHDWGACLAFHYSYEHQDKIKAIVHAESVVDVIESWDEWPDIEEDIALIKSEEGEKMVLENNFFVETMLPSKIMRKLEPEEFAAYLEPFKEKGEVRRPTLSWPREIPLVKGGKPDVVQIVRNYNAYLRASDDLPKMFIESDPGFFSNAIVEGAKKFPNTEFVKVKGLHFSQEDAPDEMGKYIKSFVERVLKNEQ
The data set is described as follows: Substrate specificity and luminescence activity of Renilla luciferase. It is filed as biochemical. Particulars: measured for 10 seconds, coelenterazine = 100. As for the experimental part:
Renilla luciferase was purified by the method described in Inouye, S. & Shimomura, O. Biochem. Biophys. Res. Commun. (1997) 233: 349-353, and used for assay.
(§1) After 1 μl of Renilla luciferase (0.45 mg/ml) was dissolved in 100 μl of 30 mM Tris-HCl (pH 7.6) containing 10 mM EDTA, 1 μl of a solution of coelenterazine or its analogue (1 μg/μl) in ethanol was added to the solution to start the luminescence reaction. The luminescence activity was measured for 10 seconds on a luminometer luminescencer-PSN AB2200 (manufactured by Atto Co., Ltd.). The luminescence activity was determined by repeating the measurement of luminescence activity described above 3 times and expressed in terms of the maximum luminescence intensity (Imax) of luminescence activity.

Data set [3] deals with T3, 19 kDa protein from Oplophorus luciferase (Oplophorus gracilirostris, UniProt Q9GV45).
T3 construct: made in house
Description: Substrate specificity and luminescence activity of the 19 kDa protein from Oplophorus luciferase. The format is biochemical. Particulars: measured for 60 seconds, coelenterazine = 100. As for the experimental part: The 19 kDa protein from Oplophorus luciferase was purified by the method described in Inouye, S. and Sasaki, S., Protein Express. Purif. (2007) 56: 261-268 and provided for use.
as §1, with “of the 19 kDa protein (2.3 mg/ml) from Oplophorus” for “of Renilla”, “luciferase containing 1 mM DTT” for “luciferase (0.45 mg/ml)”, “luminescence reaction, and the” for “luminescence reaction. The”, “for 60” for “for 10”, “measurement” for “measurement of luminescence activity”

Data set [4] has as its target T1, apoaequorin. The data set is described as follows: Fluorescence spectra of fluorescent proteins formed from semi-synthetic aequorins by Ca2+. The format is physicochemical. Particulars: for Maximum fluorescence wavelength λmax (nm) / Relative fluorescence intensity (rlu): fluorescent protein generated by calcium from semi-synthetic aequorin, excitation 330 nm, 25° C.; for fluorescence spectra of fluorescent proteins versus emission spectra of semi-synthetic aequorins, in words: same coelenterazine analogue. As for the experimental part:
The fluorescence spectra of novel fluorescent proteins formed by the Ca^2+-triggerd reaction from semi-synthetic aequorins in EXAMPLE 3 were measured at 25° C. in a quartz cell (10 mm light path length) using a Jasco FP-6500 spectrofluorometer (excitation wavelength: 330 nm, emission/excitation bandwidth: 3 nm; response: 0.5 sec, scan speed, 1000 nm/min). The fluorescence spectra measured were corrected.

Data set [5] deals with T1, apoaequorin. Description: Luminescence spectra of semi-synthetic aequorins. The format is biochemical. Particulars: semi-synthetic aequorin, calcium added, 22 to 25° C. As for the experimental part:
In a quartz cell with light path length of 10 mm, 1 ml of 50 mM Tris-HCl (pH 7.6) containing 1 mM EDTA and 100 μl (100 μg protein) of a solution of the regenerated semi-synthetic aequorin were charged. Next, 100 μl of 50 mM Tris-HCl (pH 7.6) containing 0.1 ml of 10 mM calcium chloride solution was added thereto to start the luminescence reaction. The spectra were measured on a spectrofluorimeter (FP-6500, manufactured by Jasco Co., Ltd.) with the excitation light source turned off. The measurement conditions were bandwidth: 20 nm, response: 0.5 second, scan speed: 2000 nm/min and 22 to 25° C. The luminescence spectra measured were corrected.

The next data set concerns Gaussia luciferase. The data set is described as follows: Substrate specificity and luminescence activity of Gaussia luciferase. The format is biochemical. Particulars: measured for 10 seconds, coelenterazine = 100. As for the experimental part: Gaussia luciferase was purified by the method described in Japanese Patent Application KOKAI No. 2008-099669 and provided for use. After 1 μl of Gaussia luciferase (0.024 mg/ml) was dissolved in 100 μl of phosphate buffered saline (manufactured by Sigma Inc.) containing 0.01% Tween 20 (manufactured by Sigma Inc.) and 10 mM EDTA, 1 μl of a solution of coelenterazine or its analogue (1 μg/μl) in ethanol was mixed with the solution to start the luminescence reaction. The luminescence activity was measured for 10 seconds on a luminometer luminescencer-PSN AB2200 (manufactured by Atto Co., Ltd.). The luminescence activity was determined by repeating the measurement described above 3 times and expressed in terms of the maximum luminescence intensity (Imax) of luminescence activity.

“Also recorded” adds a separate entry of the source.

T1 sequence (P07164 other isoform, or with tags, fused parts or gaps with the stated changes): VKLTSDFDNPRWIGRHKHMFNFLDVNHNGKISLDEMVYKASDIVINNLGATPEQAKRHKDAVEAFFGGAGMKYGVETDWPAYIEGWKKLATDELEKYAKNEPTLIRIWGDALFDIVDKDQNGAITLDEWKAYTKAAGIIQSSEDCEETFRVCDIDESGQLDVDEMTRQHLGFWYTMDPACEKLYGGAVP
T3 sequence (Q9GV45 28-196): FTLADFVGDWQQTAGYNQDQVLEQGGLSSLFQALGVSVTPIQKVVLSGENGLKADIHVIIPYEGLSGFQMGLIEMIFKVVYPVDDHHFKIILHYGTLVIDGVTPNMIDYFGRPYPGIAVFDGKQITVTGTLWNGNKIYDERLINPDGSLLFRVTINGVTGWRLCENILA

Consider `O=c1c(Cc2ccc(O)cc2)nc2c(-c3ccc(O)cc3)[nH]c(-c3ccc(O)cc3)cn1-2` [Compound 3j, 2-(4-Hydroxybenzyl)-6,8-bis(4-hydroxyphenyl)imidazo[1,2-a]pyrazin-3(7H)-one], for which the “calcium standard curve with semi-synthetic aequorin, in words” value (“calcium standard curve” below) on apoaequorin [1] is “calcium standard curve can be prepared”. Also, on apoaequorin [2], the “half decay time of luminescence compared to coelenterazine (native aequorin), in words” value is “markedly prolonged; also recorded: longer half decay time” and the “Half decay time” value stood at 16.8 s. Moreover, the “Luminescence activity Imax (%)” value on Renilla luciferase came out at 0.03%. Further, the “Luminescence activity Imax (%)” value in data set [3] was found to be 0.2%. On apoaequorin [4], the “Maximum fluorescence wavelength λmax (nm)” value turned out to be 580.0 nm; the “Relative fluorescence intensity (rlu)” value is on record as 13.3 rlu; the “fluorescence spectra of fluorescent proteins versus emission spectra of semi-synthetic aequorins, in words” value was “markedly different; also recorded: different luminescence spectra and fluorescence spectra”. Also, on apoaequorin [5], the “Maximum luminescence wavelength λmax (nm)” value was 457.5 nm. Further, in the data set with Gaussia luciferase, the “Luminescence activity Imax (%)” value was found to be 0.01%.
Consider `O=c1c(Cc2ccc(O)cc2)nc2c(-c3cc4ccccc4s3)[nH]c(-c3ccc(O)cc3)cn1-2` [Compound 3h, 8-(Benzo[b]thiophen-2-yl)-2-(4-hydroxybenzyl)-6-(4-hydroxyphenyl)imidazo[1,2-a]pyrazin-3(7H)-one], for which, on apoaequorin [1], the “calcium standard curve” value is “calcium standard curve can be prepared”. In addition, on apoaequorin [2], the “half decay time of luminescence compared to coelenterazine (native aequorin), in words” value is reported as “longer half decay time” and the “Half decay time” value is 1.71 s. In addition, at Renilla luciferase, the “Luminescence activity Imax (%)” value is recorded as 0.00%. The “Luminescence activity Imax (%)” value in data set [3] was 0.07%. Also, on apoaequorin [4], the “Maximum fluorescence wavelength λmax (nm)” value is 537.0 nm; the “Relative fluorescence intensity (rlu)” value was found to be 58.7 rlu; the “fluorescence spectra of fluorescent proteins versus emission spectra of semi-synthetic aequorins, in words” value is “different luminescence spectra and fluorescence spectra”. The “Maximum luminescence wavelength λmax (nm)” value at apoaequorin [5] was found to be 532.5 nm. Also, in the data set with Gaussia luciferase, the “Luminescence activity Imax (%)” value is reported as 0.00%.
`O=c1c(Cc2ccc(O)cc2)nc2c(/C=C/c3ccccc3)[nH]c(-c3ccc(O)cc3)cn1-2` [Compound 3b]: at apoaequorin [1], the “calcium standard curve” value was “calcium standard curve can be prepared”. For the same compound, at apoaequorin [2], the “half decay time of luminescence compared to coelenterazine (native aequorin), in words” value is “longer half decay time” and the “Half decay time” value came out at 0.96 s. On Renilla luciferase, the “Luminescence activity Imax (%)” value is reported as 0.00%. The “Luminescence activity Imax (%)” value in data set [3] is given as 0.07%. Moreover, on apoaequorin [4], the “Maximum fluorescence wavelength λmax (nm)” value is reported as 580.0 nm; the “Relative fluorescence intensity (rlu)” value is recorded as 10.3 rlu; the “fluorescence spectra of fluorescent proteins versus emission spectra of semi-synthetic aequorins, in words” value is “markedly different; also recorded: different luminescence spectra and fluorescence spectra”. Besides, on apoaequorin [5], the “Maximum luminescence wavelength λmax (nm)” value turned out to be 447.0 nm. Besides, the “Luminescence activity Imax (%)” value with Gaussia luciferase is reported as 0.01%.
Consider `O=c1c(Cc2ccc(O)cc2)nc2c(-c3cccc4ccccc34)[nH]c(-c3ccc(O)cc3)cn1-2` [Compound 3d, 2-(4-Hydroxybenzyl)-6-(4-hydroxyphenyl)-8-(naphthalen-1-yl)imidazo[1,2-a]pyrazin-3(7H)-one], for which the “calcium standard curve” value on apoaequorin [1] is “calcium standard curve can be prepared”. Besides, at apoaequorin [2], the “half decay time of luminescence compared to coelenterazine (native aequorin), in words” value is recorded as “longer half decay time”. In addition, the “Half decay time” value on apoaequorin [2] worked out at 1.10 s. For the same compound, the “Luminescence activity Imax (%)” value on Renilla luciferase stood at 0.00%; in data set [3] it was 0.3%; with Gaussia luciferase, 0.00%. Also, the “Maximum fluorescence wavelength λmax (nm)” value on apoaequorin [4] was found to be 482.5 nm. Further, at apoaequorin [4], the “Relative fluorescence intensity (rlu)” value came to 61.8 rlu. On apoaequorin [5], the “Maximum luminescence wavelength λmax (nm)” value is 480.0 nm.
